The test system of assay [1] is HBV DNA production in HepG2.2.15 cells. Kind of assay: HBV DNA assay (real-time qPCR/TaqMan of extracellular HBV DNA in cell supernatant). The format is cell-based. Particulars: Hepatitis B virus, 144 h, extracellular HBV DNA copy number, six days after initial administration, read-out: IC50 (Anti HBV DNA production activity). As to the method: HepG2.2.15 cells (Acs et al. Proc Natl Acad Sci USA, 84, (1987), 4641-4), a constitutively HBV-expressing cell line were cultured in DMEM+Glutamax-I medium (Invitrogen, Carlsbad, Calif., USA), supplemented with 10% fetal bovine serum (Invitrogen) and G418 (Invitrogen) at a final concentration of 200 mg/L and maintained in 5% CO2 at 37° C.
The assay employs real-time qPCR (TaqMan) to directly measure extracellular HBV DNA copy number in the cell supernatant. HepG2.2.15 cells were plated in 96-well microtiter plates before treatment with complete medium (DMEM, Glutamax, 10% FBS, 1% Penicillin/Streptomycin, 250 μg/mL Genetycin, final DMSO concentration is 1%). Only the interior wells were utilized to reduce “edge effects” observed during cell culture, the exterior wells were filled with complete medium to help minimize sample evaporation. The HepG2.2.15 cells were treated 1 h later with various concentrations of a test compound in duplicate (top concentration used at 5 μM, 2 μM or 0.5 μM according to the HBsAg IC50 observed, with ⅓ successive dilutions (total of 10 dilutions). Six days following the initial administration of the test compound, the cell culture supernatant was collected; DNA extraction was performed by automated system (Magnapure) and then used in a real-time qPCR/TaqMan assay to determine HBV DNA copy numbers. Antiviral activity was calculated from the reduction in HBV DNA levels (IC50). The compounds of the present invention were tested for their capacity to inhibit HBV DNA as described herein.

Assay [2] deals with HBsAg secretion in HepG2.2.15 cells. Nature of the assay: HBsAg assay (chemiluminescence immunoassay of secreted HBsAg in culture supernatant). It counts as cell-based, HBV. Particulars: concentration at which HBsAg secretion was reduced by 50% compared to the no drug control, read-out: IC50 (HBsAg assay). In a few lines:
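IC50 taken from dose-response curves as the concentration halving secreted HBsAg relative to DMSO control. Measured by chemiluminescence immunoassay of culture supernatant from constitutively HBV-expressing HepG2.2.15 cells, seeded at 1.5×10^4/well in duplicate and exposed to three-fold serial compound dilutions at 1% final DMSO.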

The mark [3] stands for this setting: Hepatitis B virus, HepG2.2.15, HepG2.2.15 cells.

Each structure is given as a SMILES string. pIC50: −log10 of the molar value. Read-outs that look alike come from different tables or passages of the source.

Usually pIC50 stands for −log10 of the IC50, conventionally taken in molar units. As to `COc1cc(N2CCc3nc(-c4ncccn4)ncc3C2C)cc(F)c1F` (single isomer, unassigned; (-)) [Example 17, (−)-6-(3,4-difluoro-5-methoxy-phenyl)-5-methyl-2-pyrimidin-2-yl-7,8-dihydro-5H-pyrido[4,3-d]pyrimidine], the negative-log IC50 (pIC50) in assay [1] was 8.70; in assay [2] (HepG2.2.15 cells), 8.10.

With `COc1cc(N2CCc3nc(-c4ncccn4)ncc3C2C)cc(Cl)c1F` (single isomer, unassigned; (-)) [Example 43, (−)-6-(3-chloro-4-fluoro-5-methoxy-phenyl)-5-methyl-2-pyrimidin-2-yl-7,8-dihydro-5H-pyrido[4,3-d]pyrimidine], the values for the pIC50 in assay [1] and in assay [2] (HepG2.2.15 cells) were 8.10 and 7.74, respectively. Take `COc1cc(F)cc(N2CCc3nc(-c4ncccn4)ncc3C2C)c1` (single isomer, unassigned; (-)) [Example 73, (−)-6-(3-fluoro-5-methoxy-phenyl)-5-methyl-2-pyrimidin-2-yl-7,8-dihydro-5H-pyrido[4,3-d]pyrimidine]: the values for the negative-log IC50 (pIC50) in assay [1] and in assay [2] (HepG2.2.15 cells) were 8.30 and 7.74, respectively.

Regarding `CC1c2cnc(-c3ccccn3)nc2CCN1c1cc(OCC2CC2)cc(F)n1` (stereo not shown) [Example 191, 6-[4-(cyclopropylmethoxy)-6-fluoro-2-pyridyl]-5-methyl-2-(2-pyridyl)-7,8-dihydro-5H-pyrido[4,3-d]pyrimidine], the pIC50 in assay [2] (setting [3]) is 7.46. For the compound `CC1c2cnc(-c3ccccn3)nc2CCN1c1cc(OCC(F)F)cc(F)n1` (stereo not shown) [Example 192, 6-[4-(2,2-difluoroethoxy)-6-fluoro-2-pyridyl]-5-methyl-2-(2-pyridyl)-7,8-dihydro-5H-pyrido[4,3-d]pyrimidine], the negative logarithm of the IC50 (pIC50) in assay [2] (setting [3]) was 7.52. Turning to `CC1c2cnc(-c3ccccn3)nc2CCN1c1cc(F)cc(OCC(F)F)n1` (stereo not shown) [Example 193, 6-[6-(2,2-difluoroethoxy)-4-fluoro-2-pyridyl]-5-methyl-2-(2-pyridyl)-7,8-dihydro-5H-pyrido[4,3-d]pyrimidine], the negative-log IC50 (pIC50) in assay [2] (setting [3]) was 7.08. Still for that read-out and setting: the result for `CC1c2cnc(-c3ncccn3)nc2CCN1c1cc(OCC2CSC2)cc(F)n1` (stereo not shown) [Example 194, 6-[6-fluoro-4-(thietan-3-ylmethoxy)-2-pyridyl]-5-methyl-2-pyrimidin-2-yl-7,8-dihydro-5H-pyrido[4,3-d]pyrimidine] reads 7.37; that for `CC1c2cnc(-c3ncccn3)nc2CCN1c1cc(OCC2CS(=O)(=O)C2)cc(F)n1` (stereo not shown) [Example 195, 3-[[2-fluoro-6-(5-methyl-2-pyrimidin-2-yl-7,8-dihydro-5H-pyrido[4,3-d]pyrimidin-6-yl)-4-pyridyl]oxymethyl]thietane 1,1-dioxide], 7.26. Take `CC1c2cnc(-c3ncccn3)nc2CCN1c1cc(N(C)C)cc(F)n1` (stereo not shown) [Example 196, 2-fluoro-N,N-dimethyl-6-(5-methyl-2-pyrimidin-2-yl-7,8-dihydro-5H-pyrido[4,3-d]pyrimidin-6-yl)pyridin-4-amine]: the pIC50 in assay [2] (HepG2.2.15 cells) is 8.70.

Consider `CC1c2cnc(-c3ncccn3)nc2CCN1c1cc(F)cc(N(C)C)n1` (stereo not shown) [Example 197, 4-fluoro-N,N-dimethyl-6-(5-methyl-2-pyrimidin-2-yl-7,8-dihydro-5H-pyrido[4,3-d]pyrimidin-6-yl)pyridin-2-amine], for which the pIC50 in assay [2] (HepG2.2.15 cells) is 8.22. In the case of `CC1c2cnc(-c3ncccn3)nc2CCN1c1cc(N2CCCC2)cc(F)n1` (stereo not shown) [Example 198, 6-(6-fluoro-4-pyrrolidin-1-yl-2-pyridyl)-5-methyl-2-pyrimidin-2-yl-7,8-dihydro-5H-pyrido[4,3-d]pyrimidine], the pIC50 in assay [2] (HepG2.2.15 cells) is 8.40. On to `CC1c2cnc(-c3ncccn3)nc2CCN1c1cc(F)cc(N2CCCC2)n1` (stereo not shown) [Example 199, 6-(4-fluoro-6-pyrrolidin-1-yl-2-pyridyl)-5-methyl-2-pyrimidin-2-yl-7,8-dihydro-5H-pyrido[4,3-d]pyrimidine], for which, in assay [2] (setting [3]), the negative logarithm of the IC50 (pIC50) is 7.74. As to `CC1c2cnc(-c3ncccn3)nc2CCN1c1cc(N2CCOCC2)cc(F)n1` (stereo not shown) [Example 202, 4-[2-fluoro-6-(5-methyl-2-pyrimidin-2-yl-7,8-dihydro-5H-pyrido[4,3-d]pyrimidin-6-yl)-4-pyridyl]morpholine], the negative logarithm of the IC50 (pIC50) in assay [2] (setting [3]) was 7.89. On to `CC1c2cnc(-c3ncccn3)nc2CCN1c1cc(N2CCNCC2)cc(F)n1` (stereo not shown) [Example 208, 6-(6-fluoro-4-piperazin-1-yl-2-pyridyl)-5-methyl-2-pyrimidin-2-yl-7,8-dihydro-5H-pyrido[4,3-d]pyrimidine], for which the pIC50 in assay [2] (setting [3]) was 6.73. On the same count and under the same terms, the result for `CC1c2cnc(-c3ncccn3)nc2CCN1c1cc(F)cc(N2CCNCC2)n1` (stereo not shown) [Example 209, 6-(4-fluoro-6-piperazin-1-yl-2-pyridyl)-5-methyl-2-pyrimidin-2-yl-7,8-dihydro-5H-pyrido[4,3-d]pyrimidine] reads 6.19; that for `CC1c2cnc(-c3ncccn3)nc2CCN1c1cc(N)cc(F)n1` (stereo not shown) [Example 210, 2-fluoro-6-(5-methyl-2-pyrimidin-2-yl-7,8-dihydro-5H-pyrido[4,3-d]pyrimidin-6-yl)pyridin-4-amine], 7.19; that for `CC1c2cnc(-c3ncccn3)nc2CCN1c1cc(NS(C)(=O)=O)cc(F)n1` (stereo not shown) [Example 211, N-[2-fluoro-6-(5-methyl-2-pyrimidin-2-yl-7,8-dihydro-5H-pyrido[4,3-d]pyrimidin-6-yl)-4-pyridyl]methanesulfonamide], 6.57. In the case of `CC1c2cnc(-c3ncccn3)nc2CCN1c1cc(F)cc(NS(C)(=O)=O)n1` (stereo not shown) [Example 212, N-[4-fluoro-6-(5-methyl-2-pyrimidin-2-yl-7,8-dihydro-5H-pyrido[4,3-d]pyrimidin-6-yl)-2-pyridyl]methanesulfonamide], the negative-log IC50 (pIC50) in assay [2] (setting [3]) was 6.08.

Take `Cc1cc(N(C)C)nc(N2CCc3nc(-c4ncccn4)ncc3[C@H]2C)n1` [Example 213, (−)-N,N,6-trimethyl-2-[5-methyl-2-pyrimidin-2-yl-7,8-dihydro-5H-pyrido[4,3-d]pyrimidin-6-yl]pyrimidin-4-amine]: the pIC50 in assay [2] (setting [3]) is 7.19. Still for that read-out and setting: with `CC1c2cnc(-c3ccccn3)nc2CCN1c1cc(N(C)C)cc(F)n1` (stereo not shown) [Example 216, 2-fluoro-N,N-dimethyl-6-[5-methyl-2-(2-pyridyl)-7,8-dihydro-5H-pyrido[4,3-d]pyrimidin-6-yl]pyridin-4-amine] the figure was 7.89; with `CC1c2cnc(-c3ccccn3)nc2CCN1c1cc(F)cc(N(C)C)n1` (stereo not shown) [Example 217, 4-fluoro-N,N-dimethyl-6-[5-methyl-2-(2-pyridyl)-7,8-dihydro-5H-pyrido[4,3-d]pyrimidin-6-yl]pyridin-2-amine], 7.55; with `CC1c2cnc(-c3ccccn3)nc2CCN1c1cc(N2CCCCC2)cc(F)n1` (stereo not shown) [Example 218, 6-(6-fluoro-4-(piperidin-1-yl)pyridin-2-yl)-5-methyl-2-(pyridin-2-yl)-5,6,7,8-tetrahydropyrido[4,3-d]pyrimidine], 7.66. The same measure, in the same setting: the result for `CC1c2cnc(-c3ccccn3)nc2CCN1c1cc(F)cc(N2CCCCC2)n1` (stereo not shown) [Example 219, 6-[4-fluoro-6-(1-piperidyl)-2-pyridyl]-5-methyl-2-(2-pyridyl)-7,8-dihydro-5H-pyrido[4,3-d]pyrimidine] reads 6.96. Still for that read-out and setting: with `CC1c2cnc(-c3ccccn3)nc2CCN1c1cc(N2CCOCC2)cc(F)n1` (stereo not shown) [Example 220, 4-[2-fluoro-6-[5-methyl-2-(2-pyridyl)-7,8-dihydro-5H-pyrido[4,3-d]pyrimidin-6-yl]-4-pyridyl]morpholine] the figure was 7.68.

Turning to `CC1c2cnc(-c3ccccn3)nc2CCN1c1cc(F)cc(N2CCOCC2)n1` (stereo not shown) [Example 221, 4-[4-fluoro-6-[5-methyl-2-(2-pyridyl)-7,8-dihydro-5H-pyrido[4,3-d]pyrimidin-6-yl]-2-pyridyl]morpholine], in assay [2] (setting [3]), the pIC50 was 7.47.

For `CC1c2cnc(-c3ccccn3)nc2CCN1c1cc(N2CCNC(=O)C2)cc(F)n1` (stereo not shown) [Example 222, 4-[2-fluoro-6-[5-methyl-2-(2-pyridyl)-7,8-dihydro-5H-pyrido[4,3-d]pyrimidin-6-yl]-4-pyridyl]piperazin-2-one], the pIC50 in assay [2] (setting [3]) is 7.80. Same read-out and setting: with `CC1c2cnc(-c3ccccn3)nc2CCN1c1cc(F)cc(N2CCNC(=O)C2)n1` (stereo not shown) [Example 223, 4-[4-fluoro-6-[5-methyl-2-(2-pyridyl)-7,8-dihydro-5H-pyrido[4,3-d]pyrimidin-6-yl]-2-pyridyl]piperazin-2-one] the figure was 7.82. Take `CC1c2cnc(-c3ccccn3)nc2CCN1c1cc(N2CCCC2)cc(F)n1` (stereo not shown) [Example 224, 6-(6-fluoro-4-pyrrolidin-1-yl-2-pyridyl)-5-methyl-2-(2-pyridyl)-7,8-dihydro-5H-pyrido[4,3-d]pyrimidine]: the negative logarithm of the IC50 (pIC50) in assay [2] (setting [3]) is 7.89.

(Values after US9845322B2 (Hoffmann-La Roche Inc., priority 2016, dated 2017).)
